Test results taken from US20180160679A1, “PROCESS FOR TREATING PERENNIAL PLANT WOOD DISEASES” (priority 2015, published 2018).

Legend:
[1] = test system: Diplodia seriata (F98-01); test: Mycelial growth on malt-agar medium with fungicide; assay type: cell-based
Method: (§1) Formulation 3 was used in this experiment and was compared with two formulations 5 and 6, is devoid of one of the two active ingredients but of identical composition (the quantity of active ingredient omitted is replaced with water).
(§2) The fungi on which formulations 3, 5 and 6 were tested are Diplodia seriata (F98-01), Neofusicoccum parvum (NpSV), Eutypa lata (St309) and Formitiporia mediterranea (F2010-1).
(§3) The culture medium is a malt-agar medium (15 g of malt and 20 g of agar per litre of deionized water, sterilized at 120° C. for 20 minutes).
(§4) The medium containing the fungicides is prepared by diluting the formulation under investigation in deionized water, which is added to the culture medium. The mixture is then homogenized and distributed in Petri dishes with a diameter of 90 mm.
(§5) The final concentrations of each active ingredient in the medium are as follows: 0.0005, 0.005, 0.05, 0.5, 5, 50 and 500 mg/L.
(§6) Discs with a diameter of 6 mm, cut out with a punch, are placed in each dish in sterile conditions. Three repetitions are carried out for each test. The Petri dishes are incubated at 25° C. for a time necessary for the fungus to develop as far as 1 or 2 cm from the edges of a Petri dish.
(§7) The percentage mycelial growth is evaluated relative to a control placed under the same conditions for each concentration of fungicide, by the following equation: […]
(§8) The value of the concentration of the active ingredients required for inhibiting mycelial growth at 50% (IC50) or at 90% (IC90) is calculated from the regression straight line of the percentage efficacy as a function of the logarithm of the concentration of the fungicide.
(§9) The value of the concentration of the fungicide that is lethal for the fungus is obtained according to the following methodology; the mycelial implants that have not developed on the culture medium with fungicide are transferred to a malt-agar culture medium, without fungicide. The Petri dishes are then incubated at ambient temperature. Failure of the mycelial implant to take is noted.
(§10) The interactions between the fungicides in composition 3 are investigated by Wadley's method. IC50 and IC90 can be determined for each fungicide and for the fungicide combination from the curves plotted for each active ingredient used alone or for the combination.
(§11) IC90 and the theoretical IC90 for the combination is then calculated using the following equation:
(§12) The type and the level of the interaction F are then calculated by dividing the theoretical IC value by the experimental IC observed for the combination of fungicides (F=theoretical IC/experimental IC).
(§13) The interactions are defined thus: • Additivity: F=1, • Synergy: F>1, • Antagonism: F<1.
(§14) The efficacy of tetraconazole, cyproconazole alone or in combination with chlorothalonil or metiram zinc on mycelial growth was evaluated under the same conditions as in Example 4.
(§15) The efficacy of tebuconazole in combination with another […] antifungal, metiram zinc, was also evaluated.

Eutypa lata (St309) = test: Mycelial growth on malt-agar medium with fungicide; assay type: cell-based
Method: as §1, §2, §3, §4, §5, §6, §7, §8, §9, §10, §11, §12, §13, §14, §15

[2] = test system: Neofusicoccum parvum (NpSV); test: Mycelial growth on malt-agar medium with fungicide; assay type: cell-based
Method: as §1, §2, §3, §4, §5, §6, §7, §8, §9, §10, §11, §12, §13, §14, §15

[3] = test system: Formitiporia mediterranea (F2010-1); test: Mycelial growth on malt-agar medium with fungicide; assay type: cell-based, Fomitoporia mediterranea; details: for concentration at which mycelial growth is inhibited completely: Example 6; for fungicide (lethal) activity: at the concentrations tested
Method: as §1, §2, §3, §4, §5, §6, §7, §8, §9, §10, §11, §12, §13, §14, §15

[4] = test system: Phaeocremonium aleophilum; test: Mycelial growth on malt-agar medium with fungicide (Example 6); assay type: cell-based
Method: as §3, §4, §6, §7, §8
(§16) The value of the concentration of the fungicide that is lethal for the fungus is obtained according to the following methodology; the mycelial implants that have not developed on the culture medium with fungicide are transferred to a malt-agar culture medium, without fungicide. The Petri dishes are then incubated at ambient temperature. Failure of the mycelial implant to take is noted. […]
as §14, §15

[5] = test system: Phaeomoniella chlamydospora; test: as above; assay type: cell-based
Method: as §3, §4, §6, §7, §8, §16, §14, §15

[6] = test system: Phaemoniella chlamydospora (81pep); test: Germination of the spores on malt-agar medium with fungicide; assay type: cell-based; details: at 0.05 mg/1
Method: (§17) Formulation 3 was used in this experiment and was compared with two formulations 5 and 6, devoid of one of the two active ingredients but of identical composition (the quantity of active ingredient omitted is replaced with water).
(§18) The fungi on which formulations 3, 5 and 6 were tested are Phaemoniella chlamydospora (81pep), Phaeoacremonium aleophilum (LR 23), Diplodia seriata (F98-01), Neofusicoccum parvum (NpSV) and Eutypa lata.
(§19) The fungi are transferred to a malt-agar medium (15 g of malt and 20 g of agar per litre of deionized water, sterilized at 120° C. for 20 minutes) in a Petri dish for multiplication.
(§20) The conidia of Phaemoniella chlamydospora and Phaeoacremonium aleophilum are obtained from cultures of these fungi. The conidia are obtained by rinsing the colony of fungi with a few millilitres of sterile deionized water.
(§21) The suspension of conidia in deionized water is then adjusted to 100-200 conidia per μl.
as §3, §4, §5
(§22) 100 μl of a previously homogenized suspension of spores is deposited and spread over the surface of the culture medium.
(§23) Two repetitions are carried out for each test.
(§24) The percentage germination of the spores is evaluated relative to a control placed under the same conditions.
(§25) Two Petri dishes are incubated at 25° C. for a time required for the spores of the control dish to have germinated between 90 and 100%.
(§26) For each Petri dish, 200 spores are counted and the percentage of spores germinated is calculated.
(§27) For each concentration of fungicide, the percentage efficacy of the active ingredient is determined by the following equation: […]

[7] = test system: Phaeoacremonium aleophilum (LR 23); test: as above; assay type: cell-based
Method: as §17, §18, §19, §20, §21, §3, §4, §5, §22, §23, §24, §25, §26, §27

[8] = test system: Neofusicoccum parvum (NpSV); test: as above; assay type: cell-based; details: at the concentration tested
Method: as §17, §18, §19
The conidia of Neofusicoccum parvum are obtained from pycnidia that have developed on fragments of grapevines shoots.
as §3
The medium containing the fungicides is prepared by diluting the formulation under investigation in deionized water, which is added to the culture medium. […]
(§28) The percentage germination of the spores is evaluated relative to a control placed under the same conditions. […]
as §26, §27

Eutypa lata = test: as above; assay type: cell-based
Method: as §17, §18, §19
The ascospores of Eutypa lata are obtained from perithecia situated on vine plants that have died from Eutypiosis. The perithecia are decapitated superficially, isolated one by one and soaked in sterile water for approximately 2 hours. The concentration of ascospores is then adjusted to 100-200 conidia per μl.
The culture medium is a malt-agar medium (15 g of malt and 20 g of agar per litre of deionized water, sterilized at 120° C. for 20 minutes). […]
as §28, §26, §27

[9] = test system: Neonectria galligena (Cylindrocarpon heteronema); test: Growth inhibition by laser nephelometry in 96-well microplates; assay type: cell-based
Method: (§29) For multicellular organisms such as fungi, the nephelometry method is used on sporulating strains (Joubert et al., Laser nephelometry applied in an automated microplate system to study filamentous fungus growth, Biotechniques 48: 399-404, 2010).
(§30) The strains are multiplied on suitable agar media in an oven at 20° C., for 8 days before their use, so as to be in their exponential growth phase. The fungal suspension is prepared extemporaneously at a concentration of […] for Pc and […] for Ch.
(§31) 100 μl of the suspension is used for the tests.
(§32) The tests are carried out in 96-well microplates. Doses of 0 ppm, 0.1 ppm, 0.3 ppm, 1 ppm, 3 ppm, 10 ppm, 30 ppm, 100 ppm, 300 ppm, 1000 ppm and 3000 ppm (final concentration of the substance) will be tested per product.
(§33) Three technical repetitions are carried out per modality (target species/formulation).
(§34) Controls are added per target pathogenic agent: one positive growth control and the products alone at the highest doses.
(§35) Nephelometry measurements (RNU) are carried out for 60 h, every 30 minutes and the growth values are measured to study the growth inhibition effect relative to the fungal controls.

Phytophthora cactorum = test: as above; assay type: cell-based; details: nephelometry for 60 h
Method: as §29, §30, §31, §32, §33, §34, §35

Row | Molecule | concentration from which mycelial growth is inhibited completely (Eutypa lata (St309); Example 6) | lethal dose (Eutypa lata (St309); Example 6) | concentration at which mycelial growth is inhibited completely ([2]; Example 6) | concentration at which mycelial growth is inhibited completely [3] | fungicide (lethal) activity [3] | concentration at which mycelial growth is inhibited completely [4] | concentration at which the substance is fungicidal (lethal dose) [4] | concentration at which mycelial growth is inhibited completely [5] | concentration at which the substance is fungicidal [5] | concentration at which mycelial growth is inhibited completely ([1]; Example 6) | other results
1 | CC(C1CC1)C(O)(Cn1cncn1)c1ccc(Cl)cc1 (centres unmarked) [cyproconazole] | ≥ 1 mg/L | 10 mg/L | 500 mg/L | 500 mg/L | fungicidal | 50 mg/L | 100 mg/L | 50 mg/L | 100 mg/L |  | activity on mycelial growth ([1]; Example 6): low activity
2 | CC(C)(C)C(O)(CCc1ccc(Cl)cc1)Cn1cncn1 (centres unmarked) [tebuconazole] |  |  |  |  | None of the concentrations tested is lethal | 50 mg/L | 100 mg/L | 50 mg/L | 100 mg/L |  | inhibition of germination of the spores [6]: inhibit germination of the spores completely; concentration from which elongation of the spores is inhibited [7]: ≥ 5 mg/L; inhibition of germination of the spores ([7]; at the concentrations tested (0.0005 to 500 mg/L)): does not prevent germination of the spores; inhibition of germination of the spores [8]: does not inhibit germination of the spores; concentration that inhibits germination of the spores (Eutypa lata): 50 mg/1; IC50 ([1]; Diplodia seriata, Example 5, mycelial growth, unit not given (concentrations tested in mg/L)): 6 ng/mL; concentration from which mycelial growth is inhibited completely ([1]; Example 5): ≥ 50 mg/L; lethal concentration ([1]; Example 5): 500 mg/L; concentration from which mycelial growth is inhibited completely (Eutypa lata (St309); Example 5): ≥ 0.5 mg/L; lethal concentration (Eutypa lata (St309); Example 5, implants transferred to medium without fungicide): 500 mg/L; concentration from which mycelial growth is inhibited completely ([2]; Example 5): ≥ 0.5 mg/L; lethal concentration ([2]; Example 5): 500 mg/L; IC50 ([2]; Neofusicoccum parvum, Example 5, mycelial growth, unit not given (concentrations tested in mg/L)): 13 ng/mL; concentration from which mycelial growth is inhibited completely ([3]; Example 5): ≥ 0.5 mg/L; IC50 ([3]; Example 5, mycelial growth, unit not given (concentrations tested in mg/L)): 3 ng/mL; lethal dose [9]: 1000 ppm; IC50 ([9]; growth, nephelometry for 60 h): around 230 ppm; IC90 ([9]; growth, nephelometry for 60 h): around 800 ppm; 50% inhibitory concentration (IC50) (Phytophthora cactorum): around 200 ppm; 90% inhibitory concentration (IC90) (Phytophthora cactorum): < 1000 ppm
3 | FC(F)C(F)(F)OCC(Cn1cncn1)c1ccc(Cl)cc1Cl (centres unmarked) [tetraconazole] | ≥ 5 mg/L | 50 mg/L | 500 mg/L | 10 mg/L | fungicidal | 50 mg/L | 100 mg/L | 50 mg/L | 100 mg/L | 500 mg/L | 
4 | metiram zinc |  |  |  | 500 mg/L | fungicidal | 100 mg/L |  | 100 mg/L |  | 500 mg/L | activity on mycelial growth (Eutypa lata (St309); Example 6): low activity; activity on mycelial growth (Eutypa lata (St309); Example 6, listed as Metiram zinc): do not inhibit the mycelial growth of Eutypa lata completely; activity on mycelial growth ([2]; Example 6): moderate activity
